Data taken from patent EP2193713A1, “Method for fighting animal pests without damaging pollinating insects” (Bayer CropScience AG, priority 2008, dated 2010).
Like-named read-outs stand apart in the source and are kept apart here.

Key:
Format in all cases: in vivo
[1] = tested on: Apis mellifera; assay: Tunnel test / spray application / bees: foraging activity
Text: (§1) Der Test wurde gemäß EPPO (European Plant Protection Organisation) Leitlinie 170 wie folgt durchgeführt:
Während einer Minute werden in einem abgegrenzten Bereich von 2 x 1 m^2 die Bienen gezählt, die auf Blüten absitzen. Tabelle 3 (siehe auch Figur 3)

[2] = tested on: Bombus terrestris; assay: Tent test / drench application / bumblebees: flight activity at the hive; settings: for Flugaktivität am Stock, Zahl der Hummeln / 10 min: 20 mg a.s./pl.
Procedure: (§2) Der Versuch wurde wie folgt durchgeführt:
Die Zahl der Hummeln, die im Zeitraum von 10 min in den Stock geflogen sind oder diesen verlassen haben wurde bestimmt. Tabelle 7 (siehe auch Figur 7)

[3] = tested on: Apis mellifera; assay: Tent test / drench application / bees: foraging activity; settings: for Aktivität der Nahrungssuche, Zahl der Bienen / min / 4 m^2: 20 mg a.s./pl.
Text: Der Test wurde wie folgt durchgeführt:

[4] = tested on: Apis mellifera; assay: Tunnel test / spray application / bees: brood development (share of comb cells); settings: for Brutentwicklung: result in words, 75 und 150 g a.s./ha
Text: as §1
Über alle Waben eines Bienenstocks wird der jeweilige Anteil an Zellen bestimmt, der durch Pollen, Nektar, Eier, Larven oder Puppen belegt ist bzw. leer ist. […]

[5] = tested on: Apis mellifera; assay: Tunnel test / spray application / bees: acute mortality of pupae in front of the hive
Text: as §1
Tabelle 2 (siehe auch Figur 2)

[6] = tested on: Apis mellifera; settings: for Zahl toter Arbeiterbienen: 20 mg a.s./pl.
Text: Die Mortalität von Arbeiterbienen vor dem Bienenstock wird mittels einer Falle für tote Bienen (dead bee trap) bestimmt. Die Falle besteht aus Maschendraht und ist vor dem Bienenstock angebracht. Einzelne, lebende Bienen können die Maschen des Drahts passieren, der Transport toter Bienen durch die Maschen ist nicht möglich, weswegen tote Bienen sich in der Falle ansammeln. Tabelle 1 (siehe auch Figur 1)

[7] = tested on: Bombus terrestris; assay: Tent test / drench application / bumblebees: pollination activity on tomato; settings: for Zahl der Blüten: markierte Blüten / Zahl der Blüten: offene Blüten: 20 mg a.s./pl.
Text: as §2
Bei Tomaten kommt es durch den Besuch von Hummeln zu einer Farbveränderung der Staubgefäße (markierte Blüten). Es wurde die Zahl offener und markierter Blüten bestimmt. Tabelle 8 (siehe auch Figur 8)

[8] = 75 g a.s./ha, -3 DAA (before application)
[9] = 150 g a.s./ha, -3 DAA (before application)
[10] = result in words, 20 mg a.s. / Pflanze, 2 applications (Tag 0 und Tag 14)
[11] = 75 g a.s./ha, 1 Tag vor Applikation
[12] = 75 g a.s./ha, 6 Tage nach Applikation
[13] = 75 g a.s./ha, 14 Tage nach Applikation
[14] = 75 g a.s./ha, 27 Tage nach Applikation
[15] = 150 g a.s./ha, 1 Tag vor Applikation
[16] = 150 g a.s./ha, 6 Tage nach Applikation
[17] = 150 g a.s./ha, 14 Tage nach Applikation
[18] = 150 g a.s./ha, 27 Tage nach Applikation

O=C1C=C(N(Cc2ccc(Cl)nc2)CC(F)F)CO1 [I-5, 4-{[(6-Chlorpyrid-3-yl)methyl](2,2-difluorethyl)amino}furan-2(5H)-on]
Aktivität der Nahrungssuche, Zahl der Bienen / min / m^2 ([1]; 75 g a.s./ha, 0 DAA a (09:30 Uhr)): 25,5 Bienen / min / m^2
Aktivität der Nahrungssuche, Zahl der Bienen / min / m^2 ([1]; 75 g a.s./ha, 0 DAA c (14:15 Uhr)): 41 Bienen / min / m^2
Aktivität der Nahrungssuche, Zahl der Bienen / min / m^2 ([1]; 75 g a.s./ha, 0 DAA e (17:15 Uhr)): 42,7 Bienen / min / m^2
Aktivität der Nahrungssuche, Zahl der Bienen / min / m^2 ([1]; 75 g a.s./ha, 1 DAA b (15:30 Uhr)): 18,8 Bienen / min / m^2
Aktivität der Nahrungssuche, Zahl der Bienen / min / m^2 ([1]; 75 g a.s./ha, 2 DAA): 33,3 Bienen / min / m^2
Aktivität der Nahrungssuche, Zahl der Bienen / min / m^2 ([1]; 75 g a.s./ha, 3 DAA): 40,3 Bienen / min / m^2
Aktivität der Nahrungssuche, Zahl der Bienen / min / m^2 ([1]; 75 g a.s./ha, 6 DAA): 37,8 Bienen / min / m^2
Aktivität der Nahrungssuche, Zahl der Bienen / min / m^2 ([1]; 75 g a.s./ha, -1 DAA (before application)): 27,3 Bienen / min / m^2
Aktivität der Nahrungssuche, Zahl der Bienen / min / m^2 ([1]; 75 g a.s./ha, -2 DAA (before application)): 34,8 Bienen / min / m^2
Aktivität der Nahrungssuche, Zahl der Bienen / min / m^2 [1, 8]: 26,5 Bienen / min / m^2
Aktivität der Nahrungssuche, Zahl der Bienen / min / m^2 ([1]; 150 g a.s./ha, 0 DAA a (09:30 Uhr)): 28,3 Bienen / min / m^2
Aktivität der Nahrungssuche, Zahl der Bienen / min / m^2 ([1]; 150 g a.s./ha, 0 DAA c (14:15 Uhr)): 40,2 Bienen / min / m^2
Aktivität der Nahrungssuche, Zahl der Bienen / min / m^2 ([1]; 150 g a.s./ha, 0 DAA e (17:15 Uhr)): 39 Bienen / min / m^2
Aktivität der Nahrungssuche, Zahl der Bienen / min / m^2 ([1]; 150 g a.s./ha, 1 DAA b (15:30 Uhr)): 19,2 Bienen / min / m^2
Aktivität der Nahrungssuche, Zahl der Bienen / min / m^2 ([1]; 150 g a.s./ha, 2 DAA): 35,7 Bienen / min / m^2
Aktivität der Nahrungssuche, Zahl der Bienen / min / m^2 ([1]; 150 g a.s./ha, 3 DAA): 39,3 Bienen / min / m^2
Aktivität der Nahrungssuche, Zahl der Bienen / min / m^2 ([1]; 150 g a.s./ha, 6 DAA): 37,5 Bienen / min / m^2
Aktivität der Nahrungssuche, Zahl der Bienen / min / m^2 ([1]; 150 g a.s./ha, -1 DAA (before application)): 26,3 Bienen / min / m^2
Aktivität der Nahrungssuche, Zahl der Bienen / min / m^2 ([1]; 150 g a.s./ha, -2 DAA (before application)): 34,2 Bienen / min / m^2
Aktivität der Nahrungssuche, Zahl der Bienen / min / m^2 [1, 9]: 27 Bienen / min / m^2
Aktivität der Nahrungssuche ([1]; result in words, tunnel test, spray, I-5 75 und 150 g a.s./ha, Thiamethoxam 50 g a.s./ha directly after application): keine Änderung
Flugaktivität am Stock, Zahl der Hummeln / 10 min ([2]; 0 DAA): 9 Hummeln / 10 min
Flugaktivität am Stock, Zahl der Hummeln / 10 min ([2]; 6 DAA after first application): 11 Hummeln / 10 min
Flugaktivität am Stock, Zahl der Hummeln / 10 min ([2]; 8 DAA after first application): 15 Hummeln / 10 min
Flugaktivität am Stock, Zahl der Hummeln / 10 min ([2]; 13 DAA after first application): 11 Hummeln / 10 min
Flugaktivität am Stock, Zahl der Hummeln / 10 min ([2]; 20 DAA after first application): 12 Hummeln / 10 min
Flugaktivität am Stock, Zahl der Hummeln / 10 min ([2]; 23 DAA after first application): 14 Hummeln / 10 min
Flugaktivität am Stock, Zahl der Hummeln / 10 min ([2]; 27 DAA after first application): 11 Hummeln / 10 min
Flugaktivität am Stock, Zahl der Hummeln / 10 min ([2]; 34 DAA after first application): 6 Hummeln / 10 min
Flugaktivität am Stock, Zahl der Hummeln / 10 min ([2]; -1 DAA (before first application)): 13 Hummeln / 10 min
Flugaktivität der Hummeln [2, 10]: keine Änderung
Aktivität der Nahrungssuche, Zahl der Bienen / min / 4 m^2 ([3]; 5 DAA): 26 Bienen / min / 4 m^2
Aktivität der Nahrungssuche, Zahl der Bienen / min / 4 m^2 ([3]; 6 DAA b (14:30 Uhr)): 73 Bienen / min / 4 m^2
Aktivität der Nahrungssuche, Zahl der Bienen / min / 4 m^2 ([3]; 7 DAA): 21 Bienen / min / 4 m^2
Aktivität der Nahrungssuche, Zahl der Bienen / min / 4 m^2 ([3]; 8 DAA): 70 Bienen / min / 4 m^2
Aktivität der Nahrungssuche, Zahl der Bienen / min / 4 m^2 ([3]; 9 DAA): 41 Bienen / min / 4 m^2
Aktivität der Nahrungssuche, Zahl der Bienen / min / 4 m^2 ([3]; 11 DAA): 31 Bienen / min / 4 m^2
Aktivität der Nahrungssuche, Zahl der Bienen / min / 4 m^2 ([3]; 13 DAA): 86 Bienen / min / 4 m^2
Aktivität der Nahrungssuche, Zahl der Bienen / min / 4 m^2 ([3]; 15 DAA): 43 Bienen / min / 4 m^2
Aktivität der Nahrungssuche, Zahl der Bienen / min / 4 m^2 ([3]; 16 DAA): 51 Bienen / min / 4 m^2
Aktivität der Nahrungssuche, Zahl der Bienen / min / 4 m^2 ([3]; 17 DAA): 98 Bienen / min / 4 m^2
Aktivität der Nahrungssuche, Zahl der Bienen / min / 4 m^2 ([3]; 18 DAA): 71 Bienen / min / 4 m^2
Aktivität der Nahrungssuche ([3]; result in words, tent test, drench, I-5 20 mg a.s. / Pflanze, Thiamethoxam 10 mg a.s. / Pflanze (13 Tage nach Applikation)): keine Änderung
Anteil an Zellen: Eier [4, 11]: 13,9%
Anteil an Zellen: Larven [4, 11]: 9,2%
Anteil an Zellen: Leer [4, 11]: 26,7%
Anteil an Zellen: Nektar [4, 11]: 12,5%
Anteil an Zellen: Pollen [4, 11]: 3,1%
Anteil an Zellen: Puppen [4, 11]: 34,7%
Anteil an Zellen: Eier [4, 12]: 14,7%
Anteil an Zellen: Larven [4, 12]: 8,3%
Anteil an Zellen: Leer [4, 12]: 32,8%
Anteil an Zellen: Nektar [4, 12]: 12,5%
Anteil an Zellen: Pollen [4, 12]: 4,4%
Anteil an Zellen: Puppen [4, 12]: 27,2%
Anteil an Zellen: Eier [4, 13]: 21,4%
Anteil an Zellen: Larven [4, 13]: 19,7%
Anteil an Zellen: Leer [4, 13]: 30,6%
Anteil an Zellen: Nektar [4, 13]: 8,6%
Anteil an Zellen: Pollen [4, 13]: 5%
Anteil an Zellen: Puppen [4, 13]: 14,7%
Anteil an Zellen: Eier [4, 14]: 16,7%
Anteil an Zellen: Larven [4, 14]: 6,7%
Anteil an Zellen: Leer [4, 14]: 20,7%
Anteil an Zellen: Nektar [4, 14]: 13,2%
Anteil an Zellen: Pollen [4, 14]: 3,3%
Anteil an Zellen: Puppen [4, 14]: 39,4%
Anteil an Zellen: Eier [4, 15]: 13,6%
Anteil an Zellen: Larven [4, 15]: 16,4%
Anteil an Zellen: Leer [4, 15]: 20,8%
Anteil an Zellen: Nektar [4, 15]: 14,2%
Anteil an Zellen: Pollen [4, 15]: 1,4%
Anteil an Zellen: Puppen [4, 15]: 33,6%
Anteil an Zellen: Eier [4, 16]: 15%
Anteil an Zellen: Larven [4, 16]: 6,1%
Anteil an Zellen: Leer [4, 16]: 29,4%
Anteil an Zellen: Nektar [4, 16]: 14,4%
Anteil an Zellen: Pollen [4, 16]: 3,9%
Anteil an Zellen: Puppen [4, 16]: 31,1%
Anteil an Zellen: Eier [4, 17]: 17,8%
Anteil an Zellen: Larven [4, 17]: 16,7%
Anteil an Zellen: Leer [4, 17]: 34,4%
Anteil an Zellen: Nektar [4, 17]: 12,2%
Anteil an Zellen: Pollen [4, 17]: 4,2%
Anteil an Zellen: Puppen [4, 17]: 14,7%
Anteil an Zellen: Eier [4, 18]: 15,3%
Anteil an Zellen: Larven [4, 18]: 7,2%
Anteil an Zellen: Leer [4, 18]: 21,9%
Anteil an Zellen: Nektar [4, 18]: 16,4%
Anteil an Zellen: Pollen [4, 18]: 4,2%
Anteil an Zellen: Puppen [4, 18]: 35%
Brutentwicklung ([4]; 6 Tage nach Applikation): keine Änderung
Brutentwicklung ([4]; 14 Tage nach Applikation): keine Änderung
Brutentwicklung ([4]; 27 Tage nach Applikation): keine Änderung
Zahl toter Puppen ([5]; 75 g a.s./ha, 0 DAA c (17:15 Uhr)): 0
Zahl toter Puppen ([5]; 75 g a.s./ha, 1 DAA): 0
Zahl toter Puppen ([5]; 75 g a.s./ha, 2 DAA): 0,3
Zahl toter Puppen ([5]; 75 g a.s./ha, 5 DAA): 0
Zahl toter Puppen ([5]; 75 g a.s./ha, 6 DAA): 0
Zahl toter Puppen ([5]; 75 g a.s./ha, 11 DAA): 0,3
Zahl toter Puppen ([5]; 75 g a.s./ha, 14 DAA): 0
Zahl toter Puppen ([5]; 75 g a.s./ha, 18 DAA): 0
Zahl toter Puppen ([5]; 75 g a.s./ha, 21 DAA): 0
Zahl toter Puppen ([5]; 75 g a.s./ha, 25 DAA): 0
Zahl toter Puppen [5, 8]: 0
Zahl toter Puppen ([5]; 150 g a.s./ha, 0 DAA c (17:15 Uhr)): 0
Zahl toter Puppen ([5]; 150 g a.s./ha, 1 DAA): 0
Zahl toter Puppen ([5]; 150 g a.s./ha, 2 DAA): 0
Zahl toter Puppen ([5]; 150 g a.s./ha, 5 DAA): 0
Zahl toter Puppen ([5]; 150 g a.s./ha, 6 DAA): 0
Zahl toter Puppen ([5]; 150 g a.s./ha, 11 DAA): 0
Zahl toter Puppen ([5]; 150 g a.s./ha, 14 DAA): 0,7
Zahl toter Puppen ([5]; 150 g a.s./ha, 18 DAA): 0
Zahl toter Puppen ([5]; 150 g a.s./ha, 21 DAA): 0
Zahl toter Puppen ([5]; 150 g a.s./ha, 25 DAA): 0
Zahl toter Puppen [5, 9]: 0
Mortalität von Puppen vor dem Bienenstock ([5]; result in words, tunnel test, spray, I-5 75 und 150 g a.s./ha, Fenoxycarb 150 g a.s./ha): keine Mortalität
Zahl toter Arbeiterbienen ([6]; 6 DAA a (9:30 Uhr)): 8
Zahl toter Arbeiterbienen ([6]; 6 DAA b (14:30 Uhr)): 2
Zahl toter Arbeiterbienen ([6]; 7 DAA): 8
Zahl toter Arbeiterbienen ([6]; 8 DAA): 0
Zahl toter Arbeiterbienen ([6]; 9 DAA): 0
Zahl toter Arbeiterbienen ([6]; 10 DAA): 7
Zahl toter Arbeiterbienen ([6]; 11 DAA): 2
Zahl toter Arbeiterbienen ([6]; 14 DAA): 1
Zahl toter Arbeiterbienen ([6]; 16 DAA): 1
Zahl toter Arbeiterbienen ([6]; 18 DAA): 2
Mortalität von Arbeiterbienen vor dem Bienenstock ([6]; result in words, tent test, drench, I-5 20 mg a.s. / Pflanze, Thiamethoxam 10 mg a.s. / Pflanze): keine Mortalität
Zahl der Blüten: markierte Blüten ([7]; DAA 13 after first application): 59,4
Zahl der Blüten: offene Blüten ([7]; DAA 13 after first application): 67,3
Zahl der Blüten: markierte Blüten ([7]; DAA 22 after first application): 53,7
Zahl der Blüten: offene Blüten ([7]; DAA 22 after first application): 59,3
Bestäubungsaktivität der Hummeln [7, 10]: keine Änderung
